The text below walks through data of US7915405B2, “2,4-disubstituted-5-aminocarbonyl-1,3-thiazole derivatives for therapeutic agent of antiinflammatory disease, method thereof for preparation, therapeutic agent for antiinflammatory disease induced by SPC activity containing the same” (Korea Research Institute of Chemical Technology, priority 2008, dated 2011).

The test system of one test is NIH 3T3 cells. The test can be described thus: Control of cellular division and proliferation induced by SPC ([3H]-thimidine incorporation). The test is classed as cell-based. Conditions: for IC50: compound 0.001-1 μM 30 minutes, then SPC 7 μM, 24 hours, read-out: antagonistic effect on SPC IC50; for inhibition of cellular division and proliferation induced by SPC (in words): SPC 7 μM. How it is done:
Treatment of cells with sphingosylphosphorylcholine (SPC) can induce excessive cellular division and proliferation, thus causing pathological skin conditions [Desai, Biochem. Biophys. […] Accordingly, the compounds prepared in the above Examples were tested for an effect on cellular division and proliferation induced by SPC.
First, 1×10^5 (usually 1×10^4˜10^5) NIH 3T3 cells (American Type Culture Collection, Manassas, Va., USA) were dispensed and cultured on a culture plate, and then cultured in RPMI medium containing no fetal bovine serum for 24 hours to achieve serum starvation. The cells were treated with the compounds prepared in the above Examples, and FTY720, a sphingosine-1-phosphate (S1P) agonist, at concentrations of 0.001 μM, 0.01 μM, 0.1 μM and 1 μM, and were incubated for 30 minutes. Then, SPC (Biomol, Plymouth Meeting, Pa., USA) was added thereto at a concentration of 7 μM, and the cells were incubated at 37° C. for 24 hours. […] Proliferation %=(group treated with test drug−group not treated with SPC)/(group treated with SPC alone−group not treated with SPC)×100 [Equation 1]

Test [1] has as its system TPA-induced inflammation model. The test can be described thus: Control of inflammatory reaction in mouse TPA-induced inflammation model (ear weight and MPO activity). To be noted: ICR mice; for Inhibition (%) of inflammatory reaction (ear edema, ear weight) / Inhibition (%) (MPO inhibition): 0.3% in acetone, 20 μl on the ear at 1 hour and 6 hours after TPA; for Inhibition (%) of inflammatory reaction (ear edema, ear weight): measured at 24 hours; for inhibition of TPA-induced inflammatory reactions, ear edema and MPO activity (in words): 0.3% topical, compared with hydrocortisone; for Inhibition (%) (MPO inhibition): value in brackets, MPO activity of ear at 24 hours. The test is classed as in vivo. The method, then: In order to examine an inhibitory effect on inflammatory reactions, the following test was carried out using tetradecanoyl phorbol acetate (hereinafter referred to as “TPA”)-induced inflammation model.
The TPA-induced inflammation model was a test method which has been widely used to test inflammatory reaction mechanisms and the effect of inhibitory substances [De Young L M et al., Agents and Actions, 1989, 26, 335-341]. When TPA which is a substance causing an inflammatory reaction is applied to the ear of a test subject, erythema and edema occur. Such inflammatory reactions are measurable through the increase in the activity of myeloperoxidase (MPO) which is essential for bacterial invasion into white blood cells.
Forty 6-week-old ICR mice were prepared, and 20 μl of a TPA solution (Sigma Aldrich Korea) obtained by dissolving TPA in acetone at a concentration of 125 μg/ml was applied to the left ear of each animal. At 1 hour after the application of TPA, 20 μl of each of acetone, the compounds of Examples dissolved in acetone at a concentration of 0.3%, and hydrocortisone (Sigma Aldrich Korea) dissolved in acetone at a concentration of 0.3% was applied to the TPA-applied site, and at 6 hours after the application of TPA, it was applied again to the same site in the same amount (20 μl). At 24 hours after the application of TPA, the mice were sacrificed by cervical dislocation, and the left ear was collected in a given width and measured for weight and MPO activity. Inhibition % of inflammatory reactions was calculated according to the following equation 3, and the results are shown in Table 4 below. Inhibition %=(group treated with TPA alone−group treated with test drug)/(group treated with TPA alone−group not treated with TPA)×100 [Equation 3]

Setting [2] is: Mus musculus, NIH3T3, serum starved.

Read-outs that look alike come from different tables or passages of the source.

Take `CC(C)(C)C(=O)Nc1nc(N2CCCCC2)sc1C(=O)N1CCOCC1` [Example 1-1]: the IC50 (commonly the concentration that gives 50% inhibition) in the test with NIH 3T3 cells (setting [2]) was 0.932 µM. Also, in test [1], the “Inhibition (%) of inflammatory reaction (ear edema, ear weight)” value (shortened to “Inhibition (%) of inflammatory reaction”) came out at 21%.

Regarding `CC(C)(C)C(=O)Nc1nc(N2CCN(c3ccccc3)CC2)sc1C(=O)N1CCOCC1` [Example 1-5], in the test on NIH 3T3 cells (serum starved), the IC50 came to 0.189 µM. For the same compound, the “Inhibition (%) of inflammatory reaction” value in test [1] is listed as 30%.

Take `COc1ccccc1N1CCN(c2nc(NC(=O)C(C)(C)C)c(C(=O)N3CCOCC3)s2)CC1` [Example 1-7]: in the test with NIH 3T3 cells (serum starved), the IC50 was found to be 0.271 µM.

As for `CC(C)(C)C(=O)Nc1nc(N2CCN(c3ccc(Cl)cc3)CC2)sc1C(=O)N1CCOCC1` [Example 1-8], in the test with NIH 3T3 cells (serum starved), the IC50 was 0.73 µM.

For `CC(C)(C)C(=O)Nc1nc(NCc2ccccc2)sc1C(=O)N1CCOCC1` [Example 1-10], the IC50 in the test on NIH 3T3 cells (serum starved) came out at 0.068 µM. The “Inhibition (%) of inflammatory reaction” value in test [1] turned out to be 68%.

On to `COc1ccc(CNc2nc(NC(=O)C(C)(C)C)c(C(=O)N3CCOCC3)s2)cc1` [Example 1-11], for which the IC50 in the test on NIH 3T3 cells (serum starved) was found to be 0.0937 µM. In test [1], the “Inhibition (%) of inflammatory reaction” value stood at 49%.

For the compound `CC(C)(C)C(=O)Nc1nc(NCCN2CCCCC2)sc1C(=O)N1CCOCC1` [Example 1-12, N-{5-(morpholine-4-carbonyl)-2-[2-(piperidin-1-yl)ethylamino]thiazol-4-yl}pivalamide], the IC50 in the test on NIH 3T3 cells (setting [2]) came out at 0.00581 µM. The “inhibition of cellular division and proliferation induced by SPC (in words)” value (“inhibition … by SPC (in words)” for short) in the test with NIH 3T3 cells was “dose-dependently inhibited”. In test [1], the “Inhibition (%) of inflammatory reaction” value turned out to be 86%; the “inhibition of TPA-induced inflammatory reactions, ear edema and MPO activity (in words)” value is “significantly inhibited”; the “Inhibition (%) (MPO inhibition)” value stood at 80%.

In the case of `CC(C)(C)C(=O)Nc1nc(NCCN2CCCC2)sc1C(=O)N1CCOCC1` [Example 1-13], in the test on NIH 3T3 cells (serum starved), the IC50 was found to be 0.0127 µM.

On to `CC(C)(C)C(=O)Nc1nc(N2CCC(N3CCOCC3)CC2)sc1C(=O)N1CCOCC1` [Example 1-14], for which the IC50 in the test on NIH 3T3 cells (serum starved) was 0.0093 µM. Also, the “Inhibition (%) of inflammatory reaction” value in test [1] is 71%.

On to `CC(C)(C)C(=O)Nc1nc(N2CCC(N3CCCC3)CC2)sc1C(=O)N1CCOCC1` [Example 1-15], for which, in the test with NIH 3T3 cells (serum starved), the IC50 was 0.0207 µM.

As for `CC(C)(C)C(=O)Nc1nc(N2CCC(N3CCCCC3)CC2)sc1C(=O)N1CCOCC1` [Example 1-16], the IC50 in the test on NIH 3T3 cells (serum starved) amounted to 0.103 µM.

Take `CCCCC(=O)Nc1nc(NCc2ccccc2)sc1C(=O)N1CCOCC1` [Example 1-19]: the IC50 in the test with NIH 3T3 cells (serum starved) stood at 0.079 µM.

Turning to `CCCCC(=O)Nc1nc(NCCN2CCCCC2)sc1C(=O)N1CCOCC1` [Example 1-20], the IC50 in the test with NIH 3T3 cells (serum starved) was found to be 0.0075 µM. For the same compound, the “Inhibition (%) of inflammatory reaction” value in test [1] is reported as 62%.

`CCCCC(=O)Nc1nc(N2CCC(N3CCOCC3)CC2)sc1C(=O)N1CCOCC1` [Example 1-21]: the IC50 in the test with NIH 3T3 cells (serum starved) was determined as 0.057 µM. Moreover, in test [1], the “Inhibition (%) of inflammatory reaction” value is on record as 52%.

As to `CCCCC(=O)Nc1nc(N2CCC(N3CCCC3)CC2)sc1C(=O)N1CCOCC1` [Example 1-22], in the test on NIH 3T3 cells (serum starved), the IC50 came to 0.096 µM. In test [1], the “Inhibition (%) of inflammatory reaction” value is 53% and the “Inhibition (%) (MPO inhibition)” value worked out at 48%.

As for `COc1ccccc1N1CCN(c2nc(NC(C)=O)c(C(=O)N3CCOCC3)s2)CC1` [Example 1-23], in the test with NIH 3T3 cells (serum starved), the IC50 worked out at 0.85 µM.

In the case of `COc1ccccc1N1CCN(c2nc(NC(=O)C3CCCCC3)c(C(=O)N3CCOCC3)s2)CC1` [Example 1-24], in the test with NIH 3T3 cells (serum starved), the IC50 stood at 0.91 µM.

`COc1ccccc1N1CCN(c2nc(NC(=O)C3CC3)c(C(=O)N3CCOCC3)s2)CC1` [Example 1-25]: the IC50 with NIH 3T3 cells (serum starved) amounted to 0.067 µM.

Turning to `CC(C)(C)C(=O)Nc1nc(NCC2CC2)sc1C(=O)N1CCCCC1` [Example 1-27], in the test with NIH 3T3 cells (serum starved), the half-maximal inhibitory concentration (IC50) came out at 0.308 µM.

Consider `CC(C)(C)C(=O)Nc1nc(NCC2CCCCC2)sc1C(=O)N1CCCCC1` [Example 1-28], for which the IC50 in the test with NIH 3T3 cells (serum starved) is 0.716 µM. Moreover, in test [1], the “Inhibition (%) of inflammatory reaction” value amounted to 43%.

`CC(C)(C)C(=O)Nc1nc(NCc2ccccc2)sc1C(=O)N1CCCCC1` [Example 1-29, N-[2-(benzylamino)-5-(piperidine-1-carbonyl)thiazol-4-yl]pivalamide]: the IC50 in the test with NIH 3T3 cells (setting [2]) is 0.00612 µM. In addition, the “inhibition … by SPC (in words)” value in the test on NIH 3T3 cells was “dose-dependently inhibited”. Besides, in test [1], the “Inhibition (%) of inflammatory reaction” value was found to be 87%; the “inhibition of TPA-induced inflammatory reactions, ear edema and MPO activity (in words)” value is recorded as “significantly inhibited”; the “Inhibition (%) (MPO inhibition)” value is 83%.

For the compound `CC(C)(C)C(=O)Nc1nc(NCCN2CCCCC2)sc1C(=O)N1CCCCC1` [Example 1-30], the IC50 with NIH 3T3 cells (serum starved) stood at 0.878 µM. The “Inhibition (%) of inflammatory reaction” value in test [1] amounted to 59%.

For the compound `Cc1ccccc1N1CCN(c2nc(NC(=O)C(C)(C)C)c(C(=O)N3CCCCC3)s2)CC1` [Example 1-32], in the test on NIH 3T3 cells (serum starved), the IC50 came to 0.045 µM. Moreover, the “Inhibition (%) of inflammatory reaction” value in test [1] is 43%.

Consider `CC(C)(C)C(=O)Nc1nc(N2CCN(c3ccccc3F)CC2)sc1C(=O)N1CCCCC1` [Example 1-33], for which the half-maximal inhibitory concentration (IC50) with NIH 3T3 cells (serum starved) turned out to be 0.0109 µM. Moreover, the “Inhibition (%) of inflammatory reaction” value in test [1] was 47%.

On to `CC(C)(C)C(=O)Nc1nc(N2CCN(c3ccc(F)cc3)CC2)sc1C(=O)N1CCCCC1` [Example 1-34], for which, in the test with NIH 3T3 cells (serum starved), the IC50 turned out to be 0.057 µM.

As for `CC(C)(C)C(=O)Nc1nc(N2CCN(c3ccccc3C#N)CC2)sc1C(=O)N1CCCCC1` [Example 1-35], the IC50 in the test on NIH 3T3 cells (serum starved) was 0.094 µM.

In the case of `CC(C)(C)C(=O)Nc1nc(N2CCN(c3ccccn3)CC2)sc1C(=O)N1CCCCC1` [Example 1-36], the IC50 in the test with NIH 3T3 cells (serum starved) came to 0.54 µM.

As for `CC(C)(C)C(=O)Nc1nc(N2CCC(N3CCOCC3)CC2)sc1C(=O)N1CCCCC1` [Example 1-37], the IC50 in the test on NIH 3T3 cells (serum starved) is 0.089 µM. Further, in test [1], the “Inhibition (%) of inflammatory reaction” value was found to be 44% and the “Inhibition (%) (MPO inhibition)” value turned out to be 47%.

Consider `CC(C)(C)C(=O)Nc1nc(N2CCC(N3CCCCC3)CC2)sc1C(=O)N1CCCCC1` [Example 1-38], for which, in the test with NIH 3T3 cells (serum starved), the IC50 was determined as 0.176 µM.

`CCCCC(=O)Nc1nc(NCc2ccccc2)sc1C(=O)N1CCCCC1` [Example 1-41]: the IC50 with NIH 3T3 cells (serum starved) was determined as 0.0098 µM. For the same compound, the “Inhibition (%) of inflammatory reaction” value in test [1] was 51%.

As for `CCCCC(=O)Nc1nc(NCCN2CCCCC2)sc1C(=O)N1CCCCC1` [Example 1-42], the IC50 in the test on NIH 3T3 cells (serum starved) came to 0.102 µM.

Turning to `CCCCC(=O)Nc1nc(N2CCC(N3CCCC3)CC2)sc1C(=O)N1CCCCC1` [Example 1-44], in the test on NIH 3T3 cells (serum starved), the IC50 is 0.0883 µM. Moreover, in test [1], the “Inhibition (%) of inflammatory reaction” value stood at 57%.

`CC(C)(C)C(=O)Nc1nc(NCc2ccccc2)sc1C(=O)N1CCCC1` [Example 1-45]: the IC50 with NIH 3T3 cells (serum starved) turned out to be 0.97 µM.

With `COc1ccccc1N1CCN(c2nc(NC(=O)C(C)(C)C)c(C(=O)N3CCCC3)s2)CC1` [Example 1-49], the IC50 in the test with NIH 3T3 cells (serum starved) came to 0.178 µM. Further, in test [1], the “Inhibition (%) of inflammatory reaction” value stood at 38%.

Consider `CCCCCCCCc1ccc(CCC(N)(CO)CO)cc1` [FTY720, reference compound], for which the “inhibition … by SPC (in words)” value in the test with NIH 3T3 cells is “did not inhibit”.

Take `C[C@]12CCC(=O)C=C1CC[C@@H]1[C@@H]2[C@@H](O)C[C@@]2(C)[C@H]1CC[C@]2(O)C(=O)CO` [Hydrocortisone, hydrocortisone, reference compound]: the “Inhibition (%) of inflammatory reaction” value in test [1] amounted to 85%.
